Like-named read-outs stand apart in the source and are kept apart here.
Assays:
DLD = assay: MTT drug sensitivity, colon cancer cell line DLD; type: cell-based, human
Experimental: Cytotoxicity of the platinum-based compounds was measured by MTT (thiazolyl blue tetrazolium bromide) assay. Cells were seeded in 100 μl of the culture medium without any antibiotics in 96-well plates at a predetermined cell density. For HEK 293 cells, poly-D-lysine coated plates were used. […] For the OCT inhibitor studies, the inhibitors (i.e., disopyramide or cimetidine) were added to the medium at a specified concentration immediately before the addition of the platinum-based compounds. After incubation for a specified time period, the drug-containing medium was replaced with fresh, drug-free medium and the incubation was continued for a total of 72 hours (start from the addition of platinum-based compounds). Then, the MTT assay was performed similarly as described in Alley et al., Cancer Res., 48:589-601 (1988). […] The maximal cell growth was the cell growth in the medium without any platinum-based compounds; C is the concentration of the platinum-based compound, and γ is the slope factor.
The cell seeding density was 6,000-, 8,000-, 6,000-, 15,000-12,000- and 4,000 cells/well for HCT116, HT29, RKO, SW620, LS180, and DLD cells, respectively. When cimetidine (1.5 mM) was used, it was added to the wells immediately before the addition of the platinum-based drugs. The resistance factor (RF) was defined as the ratio of the mean IC50 value in the presence to that in the absence of cimetidine. Data are expressed as mean±SD from six measurements, and each measurement was performed in quadruplicate.

MDCK-hOCT1 cells [1] = assay: Cellular accumulation of platinum in MDCK-hOCT1 cells (ICP-MS); type: in vitro ADME, canine; details: 2-hr exposure
Experimental: (§1) For the inhibitor studies, the incubation medium also contained disopyramide (150 μM). […] For the inhibitor studies, the incubation medium also contained cimetidine (1.5 mM). […] After drug exposure, the cells were washed with ice-cold PBS three times and harvested by scraping and centrifugation. The cell-associated platinum was determined by ICP-MS and normalized for protein content. Data are expressed as mean±SD from a single experiment performed in triplicate. Experiments were replicated for OCT1 and OCT2, and similar results were obtained.
The cellular accumulation of platinum was determined as described in Holzer et al., Mol. Pharmacol., 66:817-823 (2004) with some modifications. Briefly, the cells were grown in 100 mm×20 mm dishes in the culture medium without any antibiotics to over 90% confluence. For HEK 293 cells, poly-D-lysine coated dishes were used. For platinum accumulation, the cells were incubated in the culture medium containing the indicated concentrations of the platinum compounds at 37° C. in 5% CO2 for 2 hr unless specified. After incubation, the dishes were immediately placed on ice and the cells were washed with 6 ml of ice-cold PBS for three times and collected with a rubber policeman. The cell pellets were obtained by centrifugation at 400×g and at 4° C. for 15 min. For the OCT inhibitor studies, the incubation medium also contained the indicated inhibitor (i.e., disopyramide or cimetidine) in addition to the platinum-based compounds. The resulting cell pellets were then dissolved into 200 μl of 70% nitric acid at 65° C. for at least 2.5 hours, and then distilled water containing 10 ppb of iridium (Sigma) and 0.1% Triton X-100 was added to the samples to dilute nitric acid to 7%. The platinum content was measured by inductively plasma coupled mass spectrometry (ICP-MS) in the Analytical Facility at the University of California at Santa Cruz (Santa Cruz, Calif.). Cell lysates from a set of identical cultures were used for BCA protein assay.

HEK-MOCK cells = assay: Cellular accumulation of platinum in HEK-MOCK cells (ICP-MS); type: in vitro ADME, human; details: cimetidine 1.5 mM
Experimental: as §1
The cellular accumulation of platinum was determined as described in Holzer et al., Mol. Pharmacol., 66:817-823 (2004) with some modifications. Briefly, the cells were grown in 100 mm×20 mm dishes in the culture medium without any antibiotics to over 90% confluence. For HEK 293 cells, poly-D-lysine coated dishes were used. For platinum accumulation, the cells were incubated in the culture medium containing the indicated concentrations of the platinum compounds at 37° C. in 5% CO2 for 2 hr unless specified. […] The platinum content was measured by inductively plasma coupled mass spectrometry (ICP-MS) in the Analytical Facility at the University of California at Santa Cruz (Santa Cruz, Calif.). […]

MDCK-hOCT1 cells [2] = assay: Platinum-DNA adduct formation in MDCK-hOCT1 cells; type: cell-based, canine
Experimental: After incubation at 37° C. and 5% CO2 for 2 hours, the cells were washed with ice-cold PBS three times and harvested. The genomic DNA was isolated from the cells and the platinum content associated with DNA was determined by ICP-MS and normalized for DNA content. Data are expressed as mean±SD from a typical experiment performed in triplicate. Two independent experiments were conducted and similar results were obtained.
After incubation, the cells were washed with ice-cold PBS three times and harvested. Genomic DNA was isolated from the harvested cells and the DNA-associated platinum content was determined by ICP-MS and normalized for the DNA content. Data are expressed as mean±SD of three measurements.
The platinum content associated with genomic DNA was determined as described in Samimi et al., Clin. Cancer Res., 10:4661-4669 (2004) with some modifications. Briefly, the cells were grown in 100 mm×20 mm dishes in the culture medium without any antibiotics to over 90% confluence. For HEK 293 cells, poly-D-lysine coated dishes were used. Then, the cells were incubated in the culture medium containing the specified concentrations of the platinum-based compounds at 37° C. in 5% CO2 for 2 hours (or 25 min as specified). In some experiments, phosphate buffer (PB: 1.06 mM KH2PO4, 2.97 mM Na2HPO4, pH 7.4) containing 155 mM NaCl (PB—Cl buffer) or 103 mM Na2SO4 (PB—SO4 buffer) was used instead of the culture medium as specified. For the OCT inhibitor study, the incubation medium (buffer) also contained disopyramide or cimetidine). If PB—Cl or PB—SO4 buffer was used, the cells were washed with the same buffer once before drug incubation. After incubation, the cells were washed with ice-cold PBS, scraped, and pelleted. Genomic DNA was isolated from the cell pellets using the Wizard® Genomic DNA Purification Kit (Promega, Madison, Wis.) following the manufacturer's instructions. Briefly, the cells were lysed with Nuclei Lysis Solution. After RNA digestion and protein precipitation, the lysates were centrifuged and the resulting supernatant was aliquoted. The genomic DNA prepared from two different aliquots of the supernatant was used for platinum and DNA content determination, respectively. For the determination of platinum, the DNA samples were treated with 70% nitric acid at 65° C. and diluted in the same way as described above. The platinum content was analyzed using ICP-MS and the DNA content was measured by absorption spectroscopy.

[3] = 2-hr exposure, disopyramide 150 μM

O=C1[O][Pt]2([NH][C@@H]3CCCC[C@H]3[NH]2)[O]C1=O [oxaliplatin]
IC50 (DLD; absence of cimetidine, read-out: IC50 Control): 10.6 ± 5.99 µM
IC50 (DLD; cimetidine 1.5 mM, read-out: IC50 Cimetidine-treated): 71.3 ± 12.9 µM
cellular platinum accumulation rate in MDCK-hOCT1, disopyramide-treated (MDCK-hOCT1 cells [1]; 3 μM, disopyramide 150 μM): 4.04±0.04 pmol/mg protein-hr
cellular platinum accumulation rate in MDCK-hOCT1 (MDCK-hOCT1 cells [1]; drug 3 μM): 8.53±0.52 pmol/mg protein-hr
effect of disopyramide on platinum accumulation rate in MDCK-hOCT1 (MDCK-hOCT1 cells [1]; disopyramide 150 μM): two-fold decrease
effect of cimetidine on platinum accumulation / cellular uptake in HEK-MOCK (HEK-MOCK cells): significant decrease
rb in MDCK-hOCT1 (MDCK-hOCT1 cells [2]; 20 μM, PB—Cl, 25 min): 3.08±0.41×10^−6
rb in MDCK-hOCT1 (MDCK-hOCT1 cells [2]; 20 μM, PB—SO4, 25 min): 1.31±0.29×10^−6
Pt-DNA adduct level in MDCK-hOCT1 (MDCK-hOCT1 cells [2]; 20 μM, chloride free buffer PB—SO4, 25 min): 0.00398±0.00089 pmol/μg DNA
DNA-associated platinum level in MDCK-hOCT1 (MDCK-hOCT1 cells [2]; 20 μM, chloride-containing buffer PB—Cl, 25 min): 0.00933±0.00124 pmol/μg DNA
platinum-DNA adduct level in MDCK-hOCT1, disopyramide-treated (MDCK-hOCT1 cells [2]; [3]): 0.0217±0.0019 pmol/μg DNA
rb in MDCK-hOCT1, disopyramide-treated (MDCK-hOCT1 cells [2]; [3]): 7.16±0.63×10^−6
platinum-DNA adduct level in MDCK-hOCT1 (MDCK-hOCT1 cells [2]; 2-hr exposure, oxaliplatin 10 μM, culture medium): 0.0457±0.0011 pmol/μg DNA

Reference: US20100028259A1, “USE OF ORGANIC CATION TRANSPORTERS FOR CANCER DIAGNOSIS AND THERAPY” (The Regents of the University of California, priority 2006, published 2010)
